Series [1] deals with M. tuberculosis dUTPase (Mt-dUTPase) (Mycobacterium tuberculosis, UniProt P9WNS5). It is filed as biochemical.
The subject of series [2] is sensitive strain STB-FJ05349. In words: Microplate alamar blue assay (MABA), STB-FJ05349. The series is classed as cell-based. The note with it: Mycobacterium tuberculosis, STBFJ05349, 168 h. (In general: Resazurin is reduced to fluorescent resorufin, in cell work by metabolically active cells.)
The test system of series [3] is M. tuberculosis standard strain H37Rv. In words: Microplate alamar blue assay (MABA), H37Rv. It is filed as cell-based. The note with it: Mycobacterium tuberculosis, 168 h.
Series [4] deals with sensitive strain STB-FJ05060. In words: Microplate alamar blue assay (MABA), STB-FJ05060. It is filed as cell-based. The note with it: Mycobacterium tuberculosis, STBFJ05060, 168 h.
The target of series [5] is T1, human dUTPase (Homo sapiens, UniProt P33316). In words: Surface plasmon resonance (SPR), human dUTPase. It is filed as binding. To be noted: human dUTPase on CM5 chip. A general note: In SPR one partner is held on a chip, and binding of the other changes the refractive index at the surface.
Another series is described as follows: in vitro. It is filed as cell-based. To be noted: 24 h, CCK-8. On the procedure:
MRC-5, Vero E6, and Caco-2 cells were tested. […] Meanwhile, 2% DMSO was used as a negative control. After incubation for 24 h, 2-(2-methoxy-4-nitrophenyl)-3-(4-nitrophenyl)-5-(2,4-disulfophenyl)-2H-tetrazolium, monosodium salt (WST-8) was added. The experimental method referred to the kit instructions. All the experiments were repeated three times.

Series [6] deals with T1, human dUTPase. In words: biochemical.
Setting [7] is: STB-FJ05349, MABA, 7 days at 37°C, read-out: MIC.
[8] abbreviates: H37Rv, MABA, 7 days at 37°C, read-out: MIC.
Setting [9] is: STB-FJ05060, MABA, 7 days at 37°C, read-out: MIC.

≈ marks a conversion by molar mass, not a printed value. Like-named read-outs stand apart in the source and are kept apart here.

T1 sequence (P33316 other isoform, or with tags, fused parts or gaps): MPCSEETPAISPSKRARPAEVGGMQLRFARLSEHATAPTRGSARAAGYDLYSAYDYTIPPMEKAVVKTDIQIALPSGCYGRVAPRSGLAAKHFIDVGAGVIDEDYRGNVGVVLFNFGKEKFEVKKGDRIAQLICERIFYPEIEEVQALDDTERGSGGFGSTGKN
Chain of M. tuberculosis dUTPase (Mt-dUTPase) (P9WNS5 whole entry): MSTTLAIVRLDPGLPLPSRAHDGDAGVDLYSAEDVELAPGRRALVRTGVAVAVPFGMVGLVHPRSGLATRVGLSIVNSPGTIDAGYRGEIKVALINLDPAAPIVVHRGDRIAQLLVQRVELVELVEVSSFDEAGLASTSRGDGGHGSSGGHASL

The term IC50 denotes the concentration at which inhibition is half-maximal. On to `O=c1ccn([C@H]2C[C@H](O)[C@@H](COC(c3ccccc3)(c3ccccc3)c3ccccc3)O2)c(=O)[nH]1` [Trt-dU], for which the IC50 in series [1] (compound pre-incubated with enzyme 1 h at room temperature, luminescence readout) is 1.04 ± 0.08 µM. In addition, the “IC50 (Mt-dUTPase)” value in series [1] (same IC50 printed in μg/ml) is 0.49 ± 0.02 µg/mL (≈ 1.04 µM).
The term MIC denotes the lowest concentration that inhibits growth of the organism. Consider `NNC(=O)c1ccncc1` [Isoniazid], for which the MIC stood at 0.5 µg/mL (≈ 3.65 µM) in series [2] (setting [7]), 0.25 µg/mL (≈ 1.82 µM) in series [3] (setting [8]) and 0.5 µg/mL (≈ 3.65 µM) in series [4] (setting [9]).
Usually CC50 stands for the concentration giving 50% cytotoxicity. For `C=CCn1c(/C=C/c2ccccc2)nc2ccccc21` [F0414], the MIC in series [2] (setting [7]), in series [3] (setting [8]) and in series [4] (setting [9]) was 4 µg/mL (≈ 15.4 µM) in each case. Further, the “SPR binding to human dUTPase” value at human dUTPase [5] is given as “almost no RU signals”. For the same molecule, the CC50 in “in vitro” (African green monkey, Vero E6 cells) was more than 200 µM; in “in vitro” (African green monkey, Vero E6 cells, approximate conversion of >200 μM) it was more than 52 µg/mL; in the series “in vitro” (human, Caco2 cells), more than 200 µM; in the series “in vitro” (human, Caco2 cells, approximate conversion of >200 μM), more than 52 µg/mL; in “in vitro” (human, MRC-5 cells), more than 200 µM; in “in vitro” (human, MRC-5 cells, approximate conversion of >200 μM), more than 52 µg/mL. Moreover, the IC50 at human dUTPase [6] (luminescence readout) was 3.18 ± 0.96 µM; at human dUTPase [6] (same IC50 printed in μg/mL), 3.19 µM.
For the molecule `CO[C@H]1/C=C/O[C@@]2(C)Oc3c(C)c(O)c4c(O)c(c(/C=N/N5CCN(C)CC5)c(O)c4c3C2=O)NC(=O)/C(C)=C\C=C\[C@H](C)[C@H](O)[C@@H](C)[C@@H](O)[C@@H](C)[C@H](OC(C)=O)[C@@H]1C` [Rifampicin], the MIC in series [2] stood at 0.5 µg/mL (≈ 0.608 µM); in series [3] (H37RV), 0.25 µg/mL (≈ 0.304 µM); in series [4] it was 0.5 µg/mL (≈ 0.608 µM).

The values are drawn from publication PMC8544286, “Screening and Identification of a Novel Anti-tuberculosis Compound That Targets Deoxyuridine 5′-Triphosphate Nucleotidohydrolase” (Frontiers in Microbiology, 2021).
